# Results taken from a melting point compilation (Tetko et al.; mined from patent text by program, amines drawn as free bases though some values may be those of a salt).
row,Compound,melting point
1,COc1c(N2CCNCC2)c(F)c(N)c2c(=O)c(C(=O)O)cn(C3CC3)c12,271 to 273 °C
2,CC12CCCc3cc(NS(=O)(=O)c4ccc(C(=O)O)cc4)cc(c31)CCC2,215 to 217 °C
3,O=C(c1ccc(S)cc1)c1cccc([N+](=O)[O-])c1,114 °C
4,O=C(O)Cc1cc(C(=O)Cc2c(F)cccc2Cl)ccc1O,240 °C
5,O=c1ccc2c(OS(=O)(=O)C(F)(F)F)cccc2o1,104 to 105 °C
6,CCCC(O)(CCC)c1ccc(Cl)c2nc3n(c12)CCCN3c1c(C)cc(Cl)cc1Cl,176 to 178 °C
7,CCOC(=O)C(=O)Nc1cc2c3c(cccc3c1[N+](=O)[O-])C(=O)OC2=O,221 to 222 °C
8,CCCCCC(C)C(C)c1cc(O)c2c(c1)OC(C)(C)C1=C2CN(CC(=O)NC)CC1 (stereo not drawn),131 to 134 °C
9,COc1cc(N=C(N)c2cccs2)ccc1N1CCN(C(=O)NCCCCC2CCSS2)CC1 (stereo not drawn),186 °C
10,CCCNC(=O)C(C)(C)Cc1ccc2c(c1)c(Cc1ccc(C(=O)NS(=O)(=O)c3ccccc3C)cc1OC)cn2CCC,102 to 112 °C
11,CC(C)(C)c1ccc(CCOc2ncnc3ncccc23)cc1,77 to 79 °C
12,C#CC12CC3CC(C#C)(C1)CC(C#C)(C3)C2,84 to 86 °C
13,CC(=O)NCCCc1cccc2c1CCO2,66 to 67 °C
14,O=S(=O)(NCc1ccnc2c(Cl)cccc12)c1ccc(Br)cc1,185 °C
15,CCCCCCCCCCNC(=O)c1cc(NCC(=O)O)cc(C(=O)NCCCCCCCCCC)c1,172 to 173 °C
16,COc1cncc(-c2cncc(OC3SCC(O)C(O)C3O)c2)c1 (stereo not drawn),193 °C
17,Cc1ccc(-c2cncc(OC3SCC(O)C(O)C3O)c2)cc1F (stereo not drawn),213 °C
18,Cc1c(F)c(N2CCNC(C)C2)c(F)c2c1c(=O)c(C(=O)O)cn2C1CC1 (stereo not drawn),187 to 188 °C
19,COC(=O)c1sc2ccc(SC)cc2c1N(C)C,63 to 66 °C
20,CSc1ncccc1C1C(C(=O)OC(C)C)=C(C)NC(=S)N1C(=O)OC(C)C (stereo not drawn),119 to 121 °C
21,CC(=O)NCCn1ccc2c1-c1cccc(Cl)c1CC2,124 to 126 °C

row,Compound,melting point
1,CC1Cc2ccc(Cl)cc2C(c2ccc([N+](=O)[O-])cc2)=NN1C(=O)C(F)(F)F (stereo not drawn),150 to 152 °C
2,COc1cc(COCCc2cccc(NS(=O)(=O)C(F)(F)F)c2)ccc1-c1ccc(Cl)cc1,88 to 90 °C
3,COC(=O)c1cncc(-c2ccc(OC)c([N+](=O)[O-])c2)c1,192 to 194 °C
4,O=C(O)c1cn(C2CC2)c2c(F)c(N3CC4CC3CN4)c(F)cc2c1=O (stereo not drawn),288 to 290 °C
5,CCOC(=O)C(=O)CC(=O)/C=C/c1ccc(Cl)c(OC)c1F,67.5 to 69 °C
6,NS(=O)(=O)OCCOc1ccccc1,89 to 91 °C
7,CCOC(=O)CCCN(C(=O)CCCN(C(=O)c1ccc(Cl)cc1)c1c(C)cccc1C)c1c(C)cccc1C,95 to 97 °C
8,CC(C)(C)NS(=O)(=O)c1ccc2c(c1)C=C(C(=O)O)C(C(F)(F)F)O2 (stereo not drawn),229 to 234 °C
9,CC(C#N)CCCC(N(C)C)C1(c2ccc(Cl)cc2)CCC1 (stereo not drawn),54 to 56 °C
10,CCCCCCCCCCOc1ccc(NC(=O)c2ccc(OC(C)=O)cc2)cc1OCCCCCCCCCC,117 °C
11,C=Cn1cccc(O)c1=S,84 °C
12,Clc1ccc2c(C3=CCN(CCCOc4cccc5[nH]ccc45)CC3)c[nH]c2c1Cl,224 to 227 °C
13,CN1C(=O)[C@H](NC(=O)COc2ccccc2)N=C(c2ccccc2)c2ccccc21,126 to 128 °C
14,C#CCOc1ccc(COC(C)=O)cc1OC,69 to 71 °C
15,Nc1n[nH]c(SCCCO)n1,136 to 137 °C
16,CCCCCS(=O)(=O)NC(=O)C=Cc1ccc(OCCCC#N)cc1Oc1ncc(C(F)(F)F)cc1Cl,165 to 166 °C
17,CC(=O)OC1CSC(Oc2ccc(I)nc2F)C(OC(C)=O)C1OC(C)=O (stereo not drawn),234 °C
18,COC(=O)N1CC(C(N)=O)C(c2ccc(OC)c(OC3CCCC3)c2)C1 (stereo not drawn),130 to 132 °C
19,CC1CCc2c(N3CCC(N(C)C)CC3)c(F)cc3c(=O)c(C(=O)O)cn1c23 (stereo not drawn),259 to 261 °C
20,O=C(CN1CCC(Cc2ccc(F)cc2)CC1)Nc1cccc([N+](=O)[O-])c1,118 to 120 °C
21,BrCCCN(c1ccccc1)c1ccccc1,162 to 164 °C

row,Compound,melting point
1,CC(=O)c1ccc(-c2ccc(Cl)cc2)cc1,100 to 101 °C
2,CCC(=O)c1cc2c(=O)n(NS(C)(=O)=O)c(=O)[nH]c2cc1C(F)(F)F,234 to 236 °C
3,O=P(O)(O)CCCCCCCCCCCO,109 to 112 °C
4,CCCCCS(=O)(=O)NC(=O)CCc1ccc(OCCOC)cc1OCc1ccc(Cl)cc1Cl,107 to 108 °C
5,CCOC(=O)C1=C(C)NC(C)=C(C(=O)OCC)C1c1cccc(F)c1,149 to 150 °C
6,C=CC(=O)NCCCCCCCCCCCCCCCCCC,75 to 77 °C
7,CCOC(=O)C1=C(C)NC(=NC#N)NC1c1cccc([N+](=O)[O-])c1 (stereo not drawn),250 to 252 °C
8,CO[C@]12C[C@@H](CN3CCC(O)(c4ccc(Cl)cc4)CC3)CN(C)[C@@H]1Cc1c[nH]c3cccc2c13,144 to 148 °C
9,Nn1cc(Br)c(=O)[nH]c1=O,214 to 215 °C
10,CCn1ncc2c1ncc1c(NCCN(C)C)nc3cc(C)nn3c12,124 to 126 °C
11,COc1cccc2cc(CNCCN3C(=O)CC4(CCCC4)CC3=O)oc12,156 to 158 °C
12,CCCn1c(=O)c2[nH]c(C(C)(C)C)nc2n(CCN(C)C(C)=O)c1=O,149 to 152 °C
13,N#CC(F)(F)C(O)(Cn1cncn1)c1ccc(F)cc1F (stereo not drawn),130 to 132 °C
14,COc1ccc(C(=O)Nc2cc(NC(=O)c3cccc(N)c3)ccc2C)cc1OC,179 to 180 °C
15,COCC(=O)OCn1cc(C#N)c(-c2cccc(Cl)c2Cl)c1,72 to 75 °C
16,CC(C)C(NC(=O)OCCN1CCOCC1)C(=O)NC(Cc1ccccc1)C(O)C(Cc1ccccc1)NC(=O)C(NC(=O)OCc1ccccc1)C(C)C (stereo not drawn),159 to 161 °C
17,N#Cc1ccc(CCCCCO)cc1,39 to 41 °C
18,COc1cccc(OC)c1N(COC(C)C)C(=O)CCl,85 to 90 °C
19,O=[N+]([O-])c1ccc(Cl)cc1Nc1cccc(Cl)c1,112 °C

# Now from value to compound:
row,melting point,Compound
1,228 to 230 °C,CC(=O)Nc1nc(CCc2ccc(NC(=N)N)cc2)c(Cc2ccc(S(C)(=O)=O)cc2)s1
2,145 to 147 °C,CCC(=O)NCC1CC12c1cc(OC)ccc1-c1ccc(OC)cc12 (stereo not drawn)
3,135 to 136 °C,CC(CC1CCOCC1)(c1ccc(S(C)(=O)=O)cn1)c1ccc(-c2ccccn2)[nH]1 (stereo not drawn)
4,160 to 161 °C,N#Cc1c(O)ccc2ccccc12
5,109 to 112 °C,COC(=O)Cc1ccc(-c2nc3ccccc3o2)cc1
6,211 to 212 °C,O=C1CSc2c(ccc3ccccc23)N1
7,120 °C,COc1cc2c(cc1Nc1ncc(Cl)c(N[C@H]3[C@@H](C(N)=O)[C@@H]4C=C[C@H]3C4)n1)CCN(CC(C)O)CC2 (stereo partly drawn)
8,222 to 225 °C,Cc1c(C(=O)Nc2ccc(-c3ccc(S(=O)(=O)N(C)C(C(=O)O)C(C)C)cc3)cc2)oc2cccc(C(O)CO)c12 (stereo not drawn)
9,200 to 202 °C,O=c1[nH]c2ccccc2n1C1=CCN(C2C=CC(c3ccc(F)cc3)(c3ccc(F)cc3)CC2)CC1 (stereo not drawn)
10,143 °C,COc1ccc(S(=O)(=O)Nc2nc(-c3cccc([N+](=O)[O-])c3)c(CN3CCOCC3)s2)cc1OC
11,152 to 157 °C,c1ccc2c(c1)CCCC1C2=NNC1c1ccncc1 (stereo not drawn)
12,197 to 199 °C,COc1cc2nc(S(=O)(=O)Nc3c(OC)ccnc3Cl)nn2c(OC)n1
13,134 to 137 °C,O=c1oc2ccccc2n1Sc1ccc(Cl)cc1
14,77.8 °C,Cc1ccc2c(-c3ccccc3)onc2c1
15,157 to 159 °C,NC(=O)/C(=N/O)c1ccccc1Oc1ccccc1
16,195 to 196 °C,Cc1ccc(S(=O)(=O)NN=C2C(=O)Nc3cccc(Cl)c32)cc1
17,150 to 151 °C,CCOC(=O)Nc1ccc(NCc2coc3ccc(F)cc23)cc1N
18,112 °C,Cc1ccc(C2CCCN2S(=O)(=O)c2ccc(F)cc2)cc1 (racemic)
19,147 to 148 °C,CC(=O)NC(CSC(c1ccccc1)(c1ccccc1)c1ccccc1)C(=O)NCCSC(=O)C(C)C (stereo not drawn)

row,melting point,Compound
1,314 °C,COc1ccc(-c2nnc3c4ccccc4c(Nc4ccc(C#N)cc4)nn23)cc1
2,134 to 138 °C,CC(C)C(C)(C#N)N1C(=O)c2ccc3ccn(C)c3c2C1=O (stereo not drawn)
3,262 to 263 °C,Cc1nc(-c2nc(C)c(-c3ccnc(Nc4ccc(N5CCOCC5)cc4)n3)s2)cs1
4,> 300 °C,CCn1c(N)c(C(N)=O)c(=O)c2ccc(-c3ccncc3)cc21
5,178 to 184 °C,O=C(Cn1cnc2ccccc21)Nc1ccc(-n2nc(C(F)(F)F)cc2C2CC2)cc1
6,202 to 204 °C,Cc1ccc(NC(=O)N(C)Cc2cccc3c2C(=O)N(C2CCC(=O)NC2=O)C3=O)cc1C (stereo not drawn)
7,237 to 239 °C,CC(C)n1nc(-c2c(NC3CC3)nc(N)nc2-c2ccccc2)ccc1=O
8,177 to 178 °C,CCC(=O)Nc1c(C)c2c(c(Cc3ccc(C(C)C)cc3)c1C)OCC2
9,130 to 131 °C,COc1cc(COc2nn(-c3ccccc3)cc2/C=C/c2nc(C)cs2)ccc1OCc1nc(-c2ccco2)oc1C
10,> 250 °C,Nc1nc2ccccc2c2c1ncn2CC1(O)CCC1
11,179 to 182 °C,CC(C)(C)OC(=O)Nc1cc2cc(OCc3ccccc3)ccc2cc1OCc1ccccc1
12,174 to 176 °C,CNC(=O)c1cc2c(Oc3ccc(-c4noc(C(F)(F)F)n4)cc3)cncc2s1
13,143 to 147 °C,CNC(CC(C)C)c1nc(-c2ccc3c(c2)Nc2ccccc2O3)cs1 (stereo not drawn)
14,108 °C,Cc1cc2c(-c3cccc(C(F)(F)F)c3)nc(Cl)nc2s1
15,133 to 135 °C,COC(=O)c1cc(-c2ccncc2)sc1-c1ccncc1
16,110 to 115 °C,O=C1C=CC(=O)N1c1ccccc1SCCSc1ccccc1N1C(=O)C=CC1=O
17,94 to 95.5 °C,COc1ccc2c(-c3ccccc3)c(C(=O)c3ccccc3)sc2c1
18,174 °C,Nc1ccc(-c2cc(OCC(=O)N3CCOCC3)c3ccccc3n2)cc1
